Experimental data from patent publication US11827611B2, “Ubiquitin-specific peptidase 24 inhibitor, medicinal composition including the same and method of delaying or reversing multidrug resistance in cancers using the same” (NATIONAL CHENG KUNG UNIVERSITY, priority 2020, dated 2023).
Structures can show the parent of a compound that is named as a salt. Where two headings read alike, the source gives them in different places. One block for each molecule: values may come before it.

Legend:
[1] = test system: USP24 substrates, Bax and BRD7, in A549 cells; assay: protein levels of USP24 substrates in A549 cells treated with USP24 inhibitor candidates (Western blotting); format: cell-based, human; settings: for levels of Bax, BRD7 / level of p300: A549 cells; for levels of Bax, BRD7: FIG. 4B; for level of p300: FIG. 4D
Excerpt: FIG. 4B illustrates a bar diagram showing the relative protein levels of USP24 substrates, Bax and BRD7, in A549 cells treated with various USP24 inhibitor candidates according to several embodiments of the present invention.
FIG. 4D illustrates the result of Western blotting assay with anti-Ubiquitin antibodies for evaluating the ubiquitination of p300 in A549 cells with or without USP24 overexpression or USP24 inhibitor according to an embodiment of the present invention.
Human lung adenocarcinoma epithelial cell line A549 and other lung cancer cell lines were cultured with RPMI 1640 medium (Invitrogen) containing 10% fetal bovine serum (FBS), 100 μg/ml streptomycin and 100 U/ml penicillin G sodium. All cells were incubated at 37° C. with 5% CO2. For transfecting plasmid, Polyjet (SignaGen) was used according to manufacturer's instructions.

USP24 = USP24 (Homo sapiens, UniProt Q9UPU5); assay: in vitro enzyme assay of pure recombinant USP24 protein with biotin-tetra-ub as the substrate; format: biochemical; settings: for catalytic activity of recombinant purified USP24 proteins: biotin-tetra-ub substrate, FIG. 4C / 6C
Excerpt: FIG. 4C illustrates the result of in vitro enzyme assay of the enzyme activity of USP24 pure recombinant USP24 protein with biotin-tetra-ub as the substrate in the absence or presence of USP24 inhibitor according to several embodiments of the present invention.
FIG. 6C illustrates the result of in vitro enzyme assay of the enzyme activity of USP24 pure recombinant USP24 protein with biotin-tetra-ub as the substrate in the absence or presence of USP24 inhibitor according to several embodiments of the present invention.

USP7 = USP7 (Homo sapiens, UniProt Q93009); assay: catalytic activity of USP7; format: biochemical; settings: data not shown
USP10 = USP10 (Homo sapiens, UniProt Q14694); assay: catalytic activity of USP10; format: biochemical; settings: data not shown
lung cancer = lung cancer migratory ability; format: cell-based; settings: data not shown
T24 cells [2] = assay: taxol concentration inside cells evaluated by LC/MS/MS; format: cell-based, human
Excerpt: FIG. 2H illustrates the images of the taxol concentration inside cells evaluated by LC/MS/MS with or without USP24 knockdown according to an embodiment of the present invention.
FIG. 4J illustrates the concentration of taxol inside cells treated with USP24 inhibitor evaluated by LC/MS/MS according to an embodiment of the present invention.
FIG. 6B illustrates the profiles of the taxol concentration in the taxol-resistant T24 cells treated with USP24-i101 (the upper panel) or DMSO (lower panel) detected by LC/MS/MS analysis according to an embodiment of the present invention.

USP9x = USP9x (Homo sapiens, UniProt Q93008); assay: catalytic activity of USP9x; format: biochemical; settings: data not shown
T24 cells [3] = assay: cytotoxicity of T24 cells in the treatment of taxol with or without USP24 inhibitor; format: cell-based, human; settings: FIG. 4E
Excerpt: (§1) FIG. 4E(a) to 4F(c) illustrate the results of the cytotoxicity of T24 cells [FIGS. 4E(a) and 4E(b)], TMZR [FIG. 4F(a)], Hone-1 CPT-R [FIG. 4F(b)] and HCT116OX5 [FIG. 4F(c)] treated with or without USP24 inhibitor according to several embodiments of the present invention.
FIG. 6A(a) to 6A(b) illustrate the results of the cytotoxicity of T24 cells in the treatment of taxol with or without USP24 inhibitor treatment according to an embodiment of the present invention.

TMZR = assay: cytotoxicity of TMZR cells treated with or without USP24 inhibitor; format: cell-based; settings: FIG. 4F(a)
Excerpt: as §1

Hone-1 CPT-R = assay: cytotoxicity of Hone-1 CPT-R cells treated with or without USP24 inhibitor; format: cell-based; settings: FIG. 4F(b)
Excerpt: as §1

HCT116OX5 = assay: cytotoxicity of HCT116OX5 cells treated with or without USP24 inhibitor; format: cell-based; settings: HCT116OX5, FIG. 4F(c)
Excerpt: as §1

P-gp = assay: Western blotting of the level and protein stability of P-gp in T24 treated with USP24 inhibitor; format: cell-based, human; settings: T24 cells
Excerpt: FIG. 4G(a) to 4H(b) illustrate the results of Western blotting assay of the level and protein stability of P-gp in T24 treated with USP24 inhibitor according to an embodiment of the present invention.

T24 cells [4] = assay: sphere formation of T24 cells with or without USP24 inhibitor; format: cell-based, human
Excerpt: FIGS. 41(a) and 41(b) illustrate the results of the sphere formation of T24 cells with or without USP24 inhibitor treatment according to an embodiment of the present invention.

T24 = assay: tumor size of T24 injected into SCID mice treated with taxol and USP24 inhibitor; format: in vivo; settings: combined with taxol
Excerpt: (§2) FIGS. 4K(a) and 4K(b) illustrate the results of the tumor size of T24 injected into SCID mice treated with taxol and USP24 inhibitor in the indicated time according to an embodiment of the present invention.
The experiments related with animals were approved by the Institutional Animal Care and Use Committee (IACUC) at National Cheng Kung University (NCKU). These transgenic mice were generated in National Laboratory Animal Center (NLAC, Taiwan, Tainan). After breeding, two-month-old transgenic mice were used to study lung cancer development. Caging was provided suitable space and accommodates appropriate population densities that allow animals' sufficient freedom of movement. To provide amounts of food that must be for transgenic mice normal growth, and maintenance of normal body weight. These transgenic mice were accessed to fresh and uncontaminated drinking water. Transgenic mice were also observed and cared at least for two to three times per week. All methods involving animals were performed in accordance with the relevant guidelines and regulations.

EMT markers = assay: EMT markers; format: cell-based
[5] = body weight of SCID mice treated with taxol and USP24 inhibitor; format: in vivo; settings: data not shown
Excerpt: as §2

[6] = cytotoxicity of HCC827-GR cells treated with or without USP24 inhibitor under various concentrations of Gefitinib; settings: human
HCC827-GR cells = assay: as above

Chain of USP24 (Q9UPU5 whole entry): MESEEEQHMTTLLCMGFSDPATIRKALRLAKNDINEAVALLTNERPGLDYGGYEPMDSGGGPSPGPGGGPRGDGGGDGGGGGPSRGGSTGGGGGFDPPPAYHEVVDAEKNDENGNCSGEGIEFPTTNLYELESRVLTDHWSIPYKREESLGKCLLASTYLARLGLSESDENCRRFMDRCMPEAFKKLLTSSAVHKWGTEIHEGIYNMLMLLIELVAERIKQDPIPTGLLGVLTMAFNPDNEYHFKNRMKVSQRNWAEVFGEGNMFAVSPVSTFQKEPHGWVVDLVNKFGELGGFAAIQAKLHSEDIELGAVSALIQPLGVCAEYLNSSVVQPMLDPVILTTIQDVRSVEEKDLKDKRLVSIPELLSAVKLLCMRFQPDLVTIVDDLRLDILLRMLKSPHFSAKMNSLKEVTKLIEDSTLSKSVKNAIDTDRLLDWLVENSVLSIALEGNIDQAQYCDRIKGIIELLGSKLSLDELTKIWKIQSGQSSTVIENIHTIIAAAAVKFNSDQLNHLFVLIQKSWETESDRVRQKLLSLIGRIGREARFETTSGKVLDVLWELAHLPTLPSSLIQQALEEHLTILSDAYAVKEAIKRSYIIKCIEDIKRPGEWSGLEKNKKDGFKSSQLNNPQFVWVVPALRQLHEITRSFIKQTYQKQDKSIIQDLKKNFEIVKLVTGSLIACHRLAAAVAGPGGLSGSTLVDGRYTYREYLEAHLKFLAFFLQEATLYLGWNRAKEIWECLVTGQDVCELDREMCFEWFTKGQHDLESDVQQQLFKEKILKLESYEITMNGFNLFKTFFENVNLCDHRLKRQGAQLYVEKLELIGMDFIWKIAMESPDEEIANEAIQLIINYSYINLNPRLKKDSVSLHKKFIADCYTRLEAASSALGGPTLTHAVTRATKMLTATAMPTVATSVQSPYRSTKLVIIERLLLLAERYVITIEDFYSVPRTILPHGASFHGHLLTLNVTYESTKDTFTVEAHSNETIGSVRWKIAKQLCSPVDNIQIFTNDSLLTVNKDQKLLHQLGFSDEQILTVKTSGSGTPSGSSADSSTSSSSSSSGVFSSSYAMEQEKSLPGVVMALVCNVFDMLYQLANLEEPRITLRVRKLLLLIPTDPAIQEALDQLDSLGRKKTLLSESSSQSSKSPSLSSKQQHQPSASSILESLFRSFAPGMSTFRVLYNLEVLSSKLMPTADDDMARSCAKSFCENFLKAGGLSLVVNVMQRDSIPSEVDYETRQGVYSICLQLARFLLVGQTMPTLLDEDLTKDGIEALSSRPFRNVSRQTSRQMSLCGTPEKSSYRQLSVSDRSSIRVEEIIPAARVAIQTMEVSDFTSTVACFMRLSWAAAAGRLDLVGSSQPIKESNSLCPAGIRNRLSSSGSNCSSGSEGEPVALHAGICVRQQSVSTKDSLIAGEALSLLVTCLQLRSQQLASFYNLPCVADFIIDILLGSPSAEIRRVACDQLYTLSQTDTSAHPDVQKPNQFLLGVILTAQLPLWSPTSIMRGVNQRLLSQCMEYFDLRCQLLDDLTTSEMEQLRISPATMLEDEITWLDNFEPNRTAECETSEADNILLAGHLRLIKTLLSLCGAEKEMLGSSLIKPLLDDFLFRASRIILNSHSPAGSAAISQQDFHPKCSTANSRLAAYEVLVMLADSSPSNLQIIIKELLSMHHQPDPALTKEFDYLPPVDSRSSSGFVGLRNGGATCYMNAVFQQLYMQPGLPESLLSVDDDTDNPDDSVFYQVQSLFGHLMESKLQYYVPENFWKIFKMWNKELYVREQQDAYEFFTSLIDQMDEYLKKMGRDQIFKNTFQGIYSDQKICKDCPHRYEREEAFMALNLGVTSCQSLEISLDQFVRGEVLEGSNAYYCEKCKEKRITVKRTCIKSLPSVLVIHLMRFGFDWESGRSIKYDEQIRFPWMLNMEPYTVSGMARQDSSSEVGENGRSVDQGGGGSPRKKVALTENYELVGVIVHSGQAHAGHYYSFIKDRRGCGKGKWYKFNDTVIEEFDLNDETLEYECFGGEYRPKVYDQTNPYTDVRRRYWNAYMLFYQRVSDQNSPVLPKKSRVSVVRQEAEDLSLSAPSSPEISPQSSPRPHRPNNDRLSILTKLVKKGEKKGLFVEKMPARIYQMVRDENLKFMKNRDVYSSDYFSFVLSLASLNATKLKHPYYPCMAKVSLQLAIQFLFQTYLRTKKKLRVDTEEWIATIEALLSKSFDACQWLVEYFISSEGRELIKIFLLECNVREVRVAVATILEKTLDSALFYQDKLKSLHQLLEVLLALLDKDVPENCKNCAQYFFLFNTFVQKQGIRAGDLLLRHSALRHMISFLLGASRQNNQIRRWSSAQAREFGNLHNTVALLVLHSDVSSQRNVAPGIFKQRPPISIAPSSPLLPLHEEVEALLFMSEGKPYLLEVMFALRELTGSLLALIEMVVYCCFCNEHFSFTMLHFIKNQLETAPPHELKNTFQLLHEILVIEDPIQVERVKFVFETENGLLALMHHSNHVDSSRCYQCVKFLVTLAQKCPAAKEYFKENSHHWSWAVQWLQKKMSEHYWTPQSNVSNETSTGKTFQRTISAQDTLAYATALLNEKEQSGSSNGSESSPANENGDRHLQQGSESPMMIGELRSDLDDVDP
Chain of USP10 (Q14694 whole entry): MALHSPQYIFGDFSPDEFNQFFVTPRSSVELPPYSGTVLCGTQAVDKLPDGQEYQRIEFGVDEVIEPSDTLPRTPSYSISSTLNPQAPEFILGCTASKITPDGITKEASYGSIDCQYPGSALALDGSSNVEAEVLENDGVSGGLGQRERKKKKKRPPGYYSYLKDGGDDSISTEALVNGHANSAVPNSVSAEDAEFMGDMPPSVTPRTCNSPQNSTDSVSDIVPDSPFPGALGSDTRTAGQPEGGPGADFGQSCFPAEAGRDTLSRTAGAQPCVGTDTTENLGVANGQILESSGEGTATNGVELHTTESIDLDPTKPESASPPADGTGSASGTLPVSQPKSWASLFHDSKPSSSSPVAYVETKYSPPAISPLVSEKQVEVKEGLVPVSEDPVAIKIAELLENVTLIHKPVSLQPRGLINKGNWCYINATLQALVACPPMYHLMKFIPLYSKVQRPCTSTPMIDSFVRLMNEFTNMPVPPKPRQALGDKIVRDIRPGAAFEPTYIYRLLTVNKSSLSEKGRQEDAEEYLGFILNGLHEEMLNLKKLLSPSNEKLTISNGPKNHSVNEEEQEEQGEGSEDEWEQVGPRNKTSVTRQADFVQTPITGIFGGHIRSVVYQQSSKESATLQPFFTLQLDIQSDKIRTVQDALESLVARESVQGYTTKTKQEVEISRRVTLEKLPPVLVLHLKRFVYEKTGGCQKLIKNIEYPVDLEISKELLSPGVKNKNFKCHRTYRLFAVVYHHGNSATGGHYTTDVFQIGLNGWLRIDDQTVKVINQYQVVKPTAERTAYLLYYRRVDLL
Chain of USP7 (Q93009 whole entry, species assumed): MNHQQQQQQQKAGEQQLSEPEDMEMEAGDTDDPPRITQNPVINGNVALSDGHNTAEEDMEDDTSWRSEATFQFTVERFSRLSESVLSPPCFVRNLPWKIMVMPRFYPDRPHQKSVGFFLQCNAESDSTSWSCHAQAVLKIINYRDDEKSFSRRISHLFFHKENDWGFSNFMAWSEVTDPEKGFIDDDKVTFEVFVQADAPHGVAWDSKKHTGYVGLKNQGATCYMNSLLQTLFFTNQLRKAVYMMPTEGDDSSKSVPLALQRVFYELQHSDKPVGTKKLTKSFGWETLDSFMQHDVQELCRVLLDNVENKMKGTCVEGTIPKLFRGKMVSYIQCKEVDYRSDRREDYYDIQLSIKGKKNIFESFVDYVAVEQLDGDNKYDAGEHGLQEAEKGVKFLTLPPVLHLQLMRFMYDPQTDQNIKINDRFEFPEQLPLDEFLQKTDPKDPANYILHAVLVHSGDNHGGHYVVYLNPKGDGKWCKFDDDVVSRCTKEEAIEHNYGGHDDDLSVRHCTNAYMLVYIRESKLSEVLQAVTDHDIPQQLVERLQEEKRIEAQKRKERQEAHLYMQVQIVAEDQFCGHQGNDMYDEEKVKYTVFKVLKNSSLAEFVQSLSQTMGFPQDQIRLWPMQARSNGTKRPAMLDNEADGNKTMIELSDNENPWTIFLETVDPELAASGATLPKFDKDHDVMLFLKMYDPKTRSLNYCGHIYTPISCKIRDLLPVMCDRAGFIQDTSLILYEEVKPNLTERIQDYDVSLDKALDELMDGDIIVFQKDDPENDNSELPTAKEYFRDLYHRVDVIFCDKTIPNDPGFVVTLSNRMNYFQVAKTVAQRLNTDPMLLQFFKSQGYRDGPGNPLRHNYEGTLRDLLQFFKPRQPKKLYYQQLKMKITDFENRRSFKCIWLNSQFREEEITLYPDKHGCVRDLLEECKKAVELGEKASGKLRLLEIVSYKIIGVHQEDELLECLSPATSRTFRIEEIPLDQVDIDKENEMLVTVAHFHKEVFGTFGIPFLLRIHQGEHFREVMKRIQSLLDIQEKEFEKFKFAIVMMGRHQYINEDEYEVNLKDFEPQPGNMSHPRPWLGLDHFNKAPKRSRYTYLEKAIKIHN

catalytic activity of recombinant purified USP24 proteins (USP24): inhibited the catalytic activity
catalytic activity of USP7 (USP7): could inhibit
catalytic activity of USP10 (USP10): could inhibit
SMILES: CCCCNS(=O)(=O)c1ccc(NC(=O)c2ccc3ccccc3c2O)c([N+](=O)[O-])c1 [NCI158067]
levels of Bax, BRD7 [1]: could decrease the levels
level of p300 [1]: could decrease the levels
lung cancer migration (lung cancer): could inhibit lung cancer migration

catalytic activity of recombinant purified USP24 proteins (USP24): inhibited the catalytic activity
specificity in blocking USP24 enzyme activity (USP24; versus USP7, USP9x, USP10): higher specificity
catalytic activity of USP7 (USP7): could not block
catalytic activity of USP9x (USP9x): could not block
catalytic activity of USP10 (USP10): could not block
SMILES: CN1CCN(CCCCN2c3ccccc3Sc3ccc(C(=O)c4ccccc4)cc32)CC1 [NCI677397, (10-(4-(4-Methylpiperazin-1-yl)butyl)-10H-phenothiazin-2-yl)(phenyl)methanone oxalate]
concentration of taxol inside cells, with USP24 inhibitor (T24 cells [2]; under 1000 nM taxol treatment): 321.36 nM
levels of Bax, BRD7 [1]: could decrease the levels
level of p300 [1]: could decrease the levels
drug resistance induced by taxol in lung cancer (T24 cells [3]): could significantly block the drug resistance
drug resistance induced by TMZ in brain cancer (TMZR): could significantly block the drug resistance
drug resistance induced by Camptothecin in NPC (Hone-1 CPT-R): could significantly block the drug resistance
drug resistance induced by oxaliplatin in colorectal cancer (HCT116OX5): could significantly block the drug resistance
level of P-gp (P-gp): could decrease the level of P-gp
T24 sphere formation ability (T24 cells [4]): inhibit the T24 sphere formation ability
cytotoxicity of taxol in the inhibition of cancer size and weight (T24): increased the cytotoxicity of taxol in the inhibition of cancer size and weight
lung cancer migration (lung cancer): could inhibit lung cancer migration
EMT markers (EMT markers): inhibited
body weight [5]: did not affect the body weight

SMILES: CN1CCN(CCN2c3ccccc3Sc3ccc(C(=O)c4ccccc4)cc32)CC1 [USP24-i101, (10-(2-(4-Methylpiperazin-1-yl)ethyl)-10H-phenothiazin-2-yl)(phenyl)methanone]
catalytic activity of recombinant purified USP24 proteins (USP24): had comparably catalytic activity to NCI699397
viability at 1 μg/mL [6]: 94%
viability at 5 μg/mL [6]: 80.5%
IC50 (HCC827-GR cells; read-out: IC50 of gefitinib in HCC827-GR with USP24-i101, 1 μg/mL of USP24-i101): 6.3 nM
IC50 (HCC827-GR cells; read-out: IC50 of gefitinib in HCC827-GR with USP24-i101, 5 μg/mL of USP24-i101): 3.1 nM

SMILES: CCC[C@H](NC(=O)/C(C#N)=C/c1cccc(Br)n1)c1ccccc1 [WP1130, reference compound]
inhibition of the substrates of USP24 in lung cancer ([1]; FIG. 4C): could not inhibit

SMILES: CC(=O)O[C@H]1C(=O)[C@@]2(C)[C@H]([C@H](OC(=O)c3ccccc3)[C@]3(O)C[C@H](OC(=O)[C@H](O)[C@@H](NC(=O)c4ccccc4)c4ccccc4)C(C)=C1C3(C)C)[C@]1(OC(C)=O)CO[C@@H]1C[C@@H]2O [taxol]
accumulation of taxol inside the drug resistant cells, T24 (T24 cells [2]; loss of USP24 (knockdown)): 272.7 nM/1000 nM
accumulation of taxol inside the drug resistant cells, T24 (T24 cells [2]; without USP24 knockdown): 110.8 nM/1000 nM
